± gives the standard deviation of the averaged measurements.
How the values were obtained:
Assay in all cases: drug sensitivity score (DSS) (DSS score); higher = more sensitive (stronger growth inhibition); extreme values may be limits of the assay
[1] = test system: Ba/F3 P210-BCR-ABL1 RUNX1-/- (mouse)
In short: (§1)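 A drug sensitivity score summarised each dose-response curve, with luminescence from CellTiter-Glo scaled between vehicle and positive-control wells. Values are the mean of two replicates. The cells were mouse Ba/F3 clones that were CRISPR/Cas9-edited at a target exon or were edited controls, exposed on pre-printed 384-well plates to a 528-compound library at five concentrations spanning a 10,000-fold range. Plates held 10,000 cells per well in RPMI with 10% FBS for 72 h at 37 °C and 5% CO2.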

[2] = test system: Ba/F3 P210-BCR-ABL1 RUNX1wt/wt control (mouse)
In short: as §1

[3] = test system: Ba/F3 P210-BCR-ABL1 RUNX1-/mut (mouse)
In short: as §1

SMILES | drug sensitivity score [1] | drug sensitivity score [2] | drug sensitivity score [3]
CC[C@@H]1[C@H](F)C(=O)N[C@@H]1COc1nccc2cc(C(N)=O)c(OC)cc12 | 1.3 ± 0.42 | 0.25 ± 0.35 | 0.9 ± 1.3
CN(C)CC#Cc1ccc(OCCCc2sc(N3CCc4cccc(C(=O)Nc5nc6ccccc6s5)c4C3)nc2C(=O)O)c(F)c1 | 5.55 ± 0.071 | 3 ± 0.14 | 5.95 ± 4.7
CNS(=O)(=O)Nc1nccc(Cc2c(C)c3ccc(Oc4ncccn4)cc3oc2=O)c1F | 2.4 ± 0.14 | 0 | 0.3 ± 0.42
CONC(=O)c1ccccc1Nc1cc(Nc2cc(C)nn2C(C)C)ncc1Cl | 0.15 ± 0.21 | 0 | 0.15 ± 0.21
CO[C@@H](C)Cn1c(=O)n(C)c2cnc3ccc(-c4cncc(C(C)(C)O)c4)cc3c21 | 12.9 ± 0.14 | 10.25 ± 0.071 | 14.3 ± 1.4
COc1ccc2[nH]cc(/C=C3\C(=O)Nc4ccc(NC(=O)CCN5CCCCC5)cc43)c2c1 | 14.8 ± 2.5 | 6.05 ± 1.1 | 15.2 ± 4.4
C[C@H]1C[C@@H](n2c(Nc3ccc(OC(F)(F)F)cc3)nc3cc(CCC(=O)O)ccc32)CC(C)(C)C1 | 0.8 ± 1.1 | 0 | 1.4 ± 2
Cc1c(-c2c(-c3ccc(F)o3)sc3ncnc(O[C@H](Cc4ccccc4OCc4ccnn4CC(F)(F)F)C(=O)O)c23)ccc(OCCN2CCN(C)CC2)c1Cl | 1.7 ± 2.4 | 0 | 3.45 ± 4.9
Cn1cc(-c2ccc(F)c(C(F)(F)F)c2)nc1C1CCN(c2ncnc3[nH]ncc23)CC1 | 1.55 ± 1.3 | 0 | 0.7 ± 0.99
Cn1cc(C2=Nc3cc(NC(=O)C(N)C4CCCCC4)cc4c3C2=CNNC4=O)cn1 (centres undefined) | 18.2 ± 0.14 | 7.95 ± 1.1 | 16 ± 0.42
O=C(NCc1ccncc1)C12CC3CC(C1)CC(c1ccc(Cl)cc1)(C3)C2 | 4.7 ± 0.57 | 2.8 ± 0.85 | 3.3 ± 1.8
O=C1Cc2cc(C(=O)NC3C[C@H]4CC[C@@H](C3)N4S(=O)(=O)CC3CCN(CCCC(F)(F)F)CC3)c(Cl)cc2N1 (some centres undefined) | 0 | 1.35 ± 1.9 | 0.05 ± 0.071
COc1ccc(C[C@H](NC(=O)[C@H](C)NC(=O)CN2CCOCC2)C(=O)N[C@@H](Cc2ccccc2)C(=O)C2(C)CO2)cc1 (stereo in doubt) [ONX-0914] | 22.05 ± 0.21 | 17.8 ± 0.28 | 23.2 ± 2.6
Cn1cc(C[C@@H](N)C(=O)O)c2ccccc21 [1-methyl-D-tryptophan] | 0 | 0 | 0
CC/C(=C(\c1ccc(O)cc1)c1ccc(OCCN(C)C)cc1)c1ccccc1 [4-hydroxytamoxifen] | 8.2 ± 0.42 | 8.6 ± 0.28 | 8.3 ± 1.1
Nc1ncnc2c1nc(N)n2[C@@H]1O[C@H](CO)[C@@H](O)[C@H]1O [8-amino-adenosine] | 19.7 ± 0.42 | 9.4 ± 0.85 | 15.8 ± 2.4
Nc1ncnc2c1nc(Cl)n2[C@@H]1O[C@H](CO)[C@@H](O)[C@H]1O [8-chloro-adenosine] | 15.7 ± 1.1 | 7.95 ± 0.21 | 13.8 ± 1.3
COc1cc2c(cc1OCCCN1CCCC1)N=C(N)C21CCC1 [A-366] | 6.1 ± 0.57 | 0 | 6.5 ± 3
C[C@H](Nc1ncnc2[nH]cnc12)c1cc2ccc(F)cc2nc1-c1ccccn1 [AMG319] | 0.15 ± 0.21 | 0 | 1.1 ± 1.6
CC(C)[C@@H](CS(=O)(=O)C(C)C)N1C(=O)[C@@](C)(CC(=O)O)C[C@H](c2cccc(Cl)c2)[C@H]1c1ccc(Cl)cc1 [AMG-232] | 12.7 ± 2.3 | 3.7 ± 0.28 | 11.2 ± 1.6
COCCOc1cnc2ccn([C@H](C)c3nnc4c(F)cc(-c5cnn(C)c5)cn34)c(=O)c2c1 [AMG-337] | 0 | 0 | 0
CC1CCC(n2c3cnccc3c3cnc(Nc4ccc5c(n4)CCN(C(=O)CO)C5)nc32)CC1 (centres undefined) [AMG-925] | 4.2 ± 0.42 | 0 | 1.8 ± 2.1
COCC1(CO)C(=O)C2CCN1CC2 (centres undefined) [APR-246] | 1.05 ± 1.5 | 0.35 ± 0.49 | 1.4 ± 2
CC(C)[C@H](C(=O)Nc1ccc(C(=O)NO)cc1)c1ccccc1 [AR-42] | 20.3 ± 0.85 | 16.5 ± 0.14 | 17.9 ± 1.1

SMILES | drug sensitivity score [1] | drug sensitivity score [2] | drug sensitivity score [3]
Cc1sc2c(c1C)C(c1ccc(Cl)cc1)=N[C@@H](CC(=O)Nc1ccc(OCCOCCOCCOCCNc3cccc4c3C(=O)N(C3CCC(=O)NC3=O)C4=O)cc1)c1nnc(C)n1-2 (some centres undefined) [ARV-825] | 19.8 ± 0.14 | 17.9 ± 0.78 | 18.7 ± 3.1
COc1cc(N2CCC(N3CCN(C)CC3)CC2)ccc1Nc1ncnc(Nc2ccccc2S(=O)(=O)C(C)C)n1 [ASP3026] | 3.95 ± 1.6 | 1.05 ± 0.21 | 3.9 ± 3.7
O=C(NC1CCNCC1)c1n[nH]cc1NC(=O)c1c(Cl)cccc1Cl [AT7519] | 11.7 ± 3.6 | 2.8 ± 0.42 | 13.6 ± 4
CN[C@@H](C)C(=O)N[C@H]1CN(C(=O)CC(C)C)CC[C@H]2CC[C@@H](C(=O)NC(c3ccccc3)c3ccccc3)N2C1=O [AT-406] | 18.4 ± 1.8 | 13 ± 1.4 | 4.4 ± 6.2
CC[C@H](CC#N)OC(=O)N[C@@H](C)c1cccc(NC(=O)Nc2ccc(-c3cnco3)c(OC)c2)c1 [AVN944] | 25.9 ± 0.42 | 21.7 ± 1.6 | 24.95 ± 0.21
COc1cc(N2CCN(C)CC2)ccc1Nc1nccc(-c2cn(C)c3cnccc23)n1 [AZ191] | 7.2 ± 1.4 | 2.5 ± 0.71 | 7.45 ± 2.2
CN(C)CCCOc1ccc(-c2ccc3ncc4c(c3c2)n(C2CCOCC2)c(=O)n4C)cn1 [AZD0156] | 6.8 ± 1.7 | 0 | 7.6 ± 0.14
N[C@@H]1CCCN(c2c(/C=C3\SC(=O)NC3=O)cccc2-c2ccccc2)C1 [AZD1208] | 11.8 ± 0.35 | 2.4 ± 0.42 | 7.05 ± 2.5
Cc1cc(Nc2nc(N[C@@H](C)c3ncc(F)cn3)ncc2Cl)[nH]n1 [AZD1480] | 0 | 0 | 0
C=CCn1c(=O)c2cnc(Nc3ccc(N4CCN(C)CC4)cc3)nc2n1-c1cccc(C(C)(C)O)n1 [AZD1775] | 22.8 ± 3.5 | 19.1 ± 0.14 | 20.8 ± 1.5
COc1cc2ncnc(Nc3cccc(Cl)c3F)c2cc1OC(=O)N1CCN(C)C[C@H]1C [AZD3759] | 0 | 0 | 0
Cc1[nH]nc(C(F)(F)F)c1Cc1sc2c(c1C(=O)N1C[C@](C)(O)CO1)c(=O)n(C)c(=O)n2C(C)C [AZD3965] | 9.05 ± 3.5 | 0 | 6.3 ± 0.99
COc1cc(CCc2cc(NC(=O)c3ccc(N4CC(C)NC(C)C4)cc3)n[nH]2)cc(OC)c1 (centres undefined) [AZD4547] | 0.2 ± 0.28 | 0 | 0
C[C@@H]1COCCN1c1cc(C2([S@](C)(=N)=O)CC2)nc(-c2cc[nH]c3nccc2-3)n1 [AZD6738] | 20.1 ± 1.4 | 18 ± 0.57 | 19.2 ± 0.71
CN(C)C(=O)c1ccc(S(=O)(=O)c2ccc(NC(=O)[C@@](C)(O)C(F)(F)F)c(Cl)c2)cc1 [AZD7545] | 0.65 ± 0.071 | 0 | 0
NC(=O)Nc1cc(-c2cccc(F)c2)sc1C(=O)N[C@H]1CCCNC1 [AZD7762] | 9.8 ± 2 | 7.1 ± 0.71 | 7.8 ± 2.1
N#Cc1ccc2[nH]c(O)c(-c3ccc(CN4CCOCC4)cn3)c2c1 [AZD-1080] | 0 | 0 | 0
Cc1ncc(-c2ccnc(Nc3ccc(S(C)(=O)=O)cc3)n2)n1C(C)C [AZD-5438] | 5.5 ± 0.99 | 9.8 ± 0.14 | 8.8 ± 0.99
Cc1cc([C@@H](C)Nc2ccccc2C(=O)O)c2nc(N3CCOCC3)cc(=O)n2c1 [AZD-6482] | 0.1 ± 0.14 | 0.15 ± 0.21 | 0.75 ± 1.1
C[C@@H](Nc1cc(F)cc(F)c1)c1cc(C(=O)N(C)C)cc2c(=O)cc(N3CCOCC3)oc12 [AZD-8186] | 0 | 0 | 0.5 ± 0.71
CCN1CCN(Cc2ccc(Nc3ncc(F)c(-c4cc(F)c5nc(C)n(C(C)C)c5c4)n3)nc2)CC1 [Abemaciclib] | 10.2 ± 4.7 | 3.05 ± 0.071 | 8.3 ± 6.1
CN(C)Cc1c(C(=O)NCCOc2ccc(C(=O)NO)cc2)oc2ccccc12 [Abexinostat] | 24.4 ± 1.3 | 18.7 ± 0.28 | 23.2 ± 2.4
CC#CC(=O)N1CCC[C@H]1c1nc(-c2ccc(C(=O)Nc3ccccn3)cc2)c2c(N)nccn12 [Acalabrutinib] | 0 | 0 | 0.05 ± 0.071
COc1cc(C)c(/C=C/C(C)=C/C=C/C(C)=C/C(=O)O)c(C)c1C [Acitretin] | 0 | 0 | 1.3 ± 1.8

— the supplement of paper PMC8024199
